Patent US20230312587A1, “PTERIDINONE COMPOUNDS AND USES THEREOF” (Vertex Pharmaceutical Incorporated, priority 2018, published 2023)
Read-outs that look alike come from different tables or passages of the source.

What was measured:
Type in all cases: cell-based
[1] = test system: β-catenin-TCF-mediated reporter transcription activity in Colo 205 cells; assay: Colo 205 reporter assay (TCF/LEF luciferase); details: five hours after addition of compound
Method in brief: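 Luciferase signal from a TCF/LEF-driven reporter, stably integrated in Colo 205 colon cancer cells, was measured 5 h after compound addition.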

HepG2 XBP1(u)-Luc cells = assay: HepG2 XBP1 reporter assay; details: Homo sapiens, 6 h
Method in brief: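 Reporter cells are HepG2 stably carrying unspliced XBP1 fused to firefly luciferase, which becomes in-frame after IRE1alpha-mediated splicing. SteadyGlo luminescence was normalized to DMSO-treated cells for IC50 calculation.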

HepG2 parental = assay: In vitro cell viability (CellTiter-Glo), HepG2 parental; details: 96 hours
Procedure: HEK293 cells containing empty pCLPCx vector (HEK293 empty), HEK293 cells stably over-expression WFS1 (HEK293 WFS1), HepG2, and HepG2 cells where WFS1 was depleted via CRISPR/Cas9 (HepG2 WFS1 KO) cells were plated into 96-well black plates (Corning, product #3904) in 100 microliters of complete DMEM cell culture media [DMEM (Life Technologies, product #11960-051) media supplemented with 10% FBS (Hyclone, catalog #SH30071.03), antimycotic/antibiotic (Life Technologies, product #15240-062), and Glutamax (Life Technologies, product #35050-061)] at 1,000 (HEK293) or 5,000 (HepG2) cells per well. Cells were allowed to attach and grow overnight, after which compounds are added at various concentrations. Cell viability was assessed 96 hrs after compound addition with CellTiter-Glo reagent (Promega, catalog #G7570) according to manufacturer's protocol and measurement on a Pherastar luminescence plate reader (BMG Labtech).
To determine the effect of WFS1 depletion on compound mediated inhibition of cell viability, parental HepG2 cells and HepG2 cells where WFS1 was deleted by CRISPR/Cas9 were exposed to increasing concentrations of either Compound 136 or Compound 253 for 96 hours after which time viability was determined using Cell Titer Glo reagent (Promega). […] The IC50s for the viability of both the HepG2 parental and WFS1 knockout cells are summarized in Table 47: A<0.5 μM; 0.5 μM≤<2.0 μM; 2.0 μM≤C<10.0 μM; D≥[…].

[2] = Homo sapiens, COLO 205, 5 h, Colo 205 TCF/LEF luciferase reporter, read-out: TCF reporter Colo205 IC50
[3] = Homo sapiens, read-out: HepG2 viability

| IC50 [1, 2] [nM] | IC50 (HepG2 XBP1(u)-Luc cells) [nM] | Molecule | IC50 (HepG2 parental; [3]) [nM] | other results |
| --- | --- | --- | --- | --- |
| 1000 to 5000 | < 600 | Cc1nc(N[C@H]2CC[C@H](n3ccc(C(F)(F)F)n3)C2)nc2c1NC(=O)[C@H](C)N2C (single isomer, unassigned) [Compound 310] | ≥ 10000 | – |
| < 300 | < 600 | Cc1nc(N[C@@H]2CC[C@@H](n3ccc(C(F)(F)F)n3)C2)nc2c1NC(=O)[C@H](C)N2C (single isomer, unassigned) [Compound 311] | ≥ 10000 | – |
| < 300 | 2000 to 10000 | Cc1nc(NCc2cnn(Cc3ccc(C(F)(F)F)nc3[C@@H](C)O)c2)nc2c1NC(=O)[C@H](C)N2C (single isomer, unassigned) [Compound 420] | 500 to 2000 | – |
| < 300 | – | Cc1nc(NCc2cnn(Cc3ccc(F)cc3)c2)nc2c1N(C)C(=O)[C@H](C)N2C [Compound 1, (7S)-2-(((1-(4-fluorobenzyl)-1H-pyrazol-4-yl)methyl)amino)-4,5,7,8-tetramethyl-7,8-dihydropteridin-6(5H)-one] | < 500 | – |
| < 300 | – | Cc1nc(NCc2cnn(Cc3ccc(F)cc3)c2)nc2c1NC(=O)[C@H](C)N2C [Compound 4, (7S)-2-(((1-(4-fluorobenzyl)-1H-pyrazol-4-yl)methyl)amino)-4,7,8-trimethyl-7,8-dihydropteridin-6(5H)-one] | 2000 to 10000 | – |
| 300 to 1000 | 600 to 2000 | Cc1nc(NCc2cnn(CCc3ccc(F)cc3)c2)nc2c1NC(=O)[C@H](C)N2C [Compound 6, (7S)-2-(((1-(4-fluorophenethyl)-1H-pyrazol-4-yl)methyl)amino)-4,7,8-trimethyl-7,8-dihydropteridin-6(5H)-one] | 2000 to 10000 | – |
| 300 to 1000 | 600 to 2000 | Cc1nc(NCc2cnn(CC3CCC3)c2)nc2c1N(C)C(=O)[C@H](C)N2C [Compound 7, (7S)-2-(((1-(cyclobutylmethyl)-1H-pyrazol-4-yl)methyl)amino)-4,5,7,8-tetramethyl-7,8-dihydropteridin-6(5H)-one] | 2000 to 10000 | – |
| 300 to 1000 | 2000 to 10000 | Cc1nc(NCc2cnn(CCc3ccc(F)cc3)c2)nc2c1N(C)C(=O)[C@H](C)N2C [Compound 8, (7S)-2-(((1-(4-fluorophenethyl)-1H-pyrazol-4-yl)methyl)amino)-4,5,7,8-tetramethyl-7,8-dihydropteridin-6(5H)-one] | 2000 to 10000 | – |
| < 300 | 600 to 2000 | CC[C@H]1C(=O)Nc2cnc(NCc3cnn(Cc4ccc(F)cc4)c3)nc2N1C [Compound 9, (7S)-7-ethyl-2-(((1-(4-fluorobenzyl)-1H-pyrazol-4-yl)methyl)amino)-8-methyl-7,8-dihydropteridin-6(5H)-one] | ≥ 10000 | – |
| < 300 | < 600 | Cc1nc(NCc2cnn(C[C@H](C)c3ccc(F)cc3)c2)nc2c1NC(=O)[C@H](C)N2C [Compound 96, (7S)-2-(((1-((R)-2-(4-fluorophenyl)propyl)-1H-pyrazol-4-yl)methyl)amino)-4,7,8-trimethyl-7,8-dihydropteridin-6(5H)-one] | 2000 to 10000 | – |
| 1000 to 5000 | ≥ 10000 | Cc1nc(NCc2cnn(CCC3CCOCC3)c2)nc2c1NC(=O)[C@H](C)N2C [Compound 115, (7S)-4,7,8-trimethyl-2-(((1-(2-(tetrahydro-2H-pyran-4-yl)ethyl)-1H-pyrazol-4-yl)methyl)amino)-7,8-dihydropteridin-6(5H)-one] | ≥ 10000 | – |
| 1000 to 5000 | 2000 to 10000 | CCOc1ccc(CCn2cc(CNc3ncc4c(n3)N(C)[C@@H](C)C(=O)N4)cn2)cc1 [Compound 121, (7S)-2-(((1-(4-ethoxyphenethyl)-1H-pyrazol-4-yl)methyl)amino)-7,8-dimethyl-7,8-dihydropteridin-6(5H)-one] | ≥ 10000 | – |
| 1000 to 5000 | ≥ 10000 | Cc1nc(NCc2cnn(C3CCN(C(=O)c4ccc(F)cc4)CC3)c2)nc2c1NC(=O)[C@H](C)N2C [Compound 125, (7S)-2-(((1-(1-(4-Fluorobenzoyl)piperidin-4-yl)-1H-pyrazol-4-yl)methyl)amino)-4,7,8-trimethyl-7,8-dihydropteridin-6(5H)-one] | 2000 to 10000 | – |
| < 300 | – | Cc1nc(N[C@H]2C[C@H](Oc3cc(F)c(F)c(F)c3)C2)nc2c1N(C)C(=O)[C@H](C)N2C [Compound 253, (7S)-4,5,7,8-tetramethyl-2-((trans-3-(3,4,5-trifluorophenoxy)cyclobutyl)amino)-7,8-dihydropteridin-6(5H)-one] | 500 to 2000 | IC50 (HepG2 parental; Homo sapiens, cell viability, Cell Titer Glo, read-out: IC50): 640 nM; IC50 (HepG2 parental; Homo sapiens, cell viability, read-out: IC50 class): 500 to 2000 nM |
| < 300 | – | Cc1nc(N[C@H]2C[C@@H](COc3cc(F)c(F)c(F)c3)C2)nc2c1NC(=O)[C@H](C)N2C [Compound 257, (7S)-4,7,8-Trimethyl-2-((cis-3-((3,4,5-trifluorophenoxy)methyl)cyclobutyl)-amino)-7,8-dihydropteridin-6(5H)-one] | 2000 to 10000 | – |
| 1000 to 5000 | – | Cc1nc(N[C@H]2C[C@H](COc3cc(F)c(F)c(F)c3)C2)nc2c1NC(=O)[C@H](C)N2C [Compound 258, (7S)-4,7,8-trimethyl-2-((trans-3-((3,4,5-trifluorophenoxy)methyl)-cyclobutyl)amino)-7,8-dihydropteridin-6(5H)-one] | 2000 to 10000 | – |
| < 300 | – | Cc1nc(N[C@@H]2CC[C@@H](Oc3cc(F)c(F)c(F)c3)C2)nc2c1N(C)C(=O)[C@H](C)N2C [Compound 272, (S)-4,5,7,8-tetramethyl-2-(((1R,3R)-3-(3,4,5-trifluorophenoxy)cyclopentyl)amino)-7,8-dihydropteridin-6(5H)-one] | < 500 | – |
| < 300 | < 600 | Cc1nc(NCc2cnn(Cc3ccc(C(F)(F)F)nc3)c2)nc2c1NC(=O)[C@H](C)N2C(C)C [Compound 385, (7S)-8-isopropyl-4,7-dimethyl-2-(((1-((6-(trifluoromethyl)pyridin-3-yl)methyl)-1H-pyrazol-4-yl)methyl)amino)-7,8-dihydropteridin-6(5H)-one] | – | – |
| < 300 | < 600 | Cc1nc(NCc2cnn(Cc3ccc(C(F)(F)F)nc3)c2)nc2c1NC(=O)[C@H](C1CC1)N2C [Compound 386, (7S)-7-Cyclopropyl-4,8-dimethyl-2-(((1-((6-(trifluoromethyl)pyridin-3-yl)methyl)-1H-pyrazol-4-yl)methyl)amino)-7,8-dihydropteridin-6(5H)-one] | – | – |
| < 300 | < 600 | Cc1nc(NCc2cnn(Cc3ccc(C(F)(F)F)nc3C(C)C)c2)nc2c1NC(=O)[C@H](C)N2C [Compound 388, (7S)-2-(((1-((2-isopropyl-6-(trifluoromethyl)pyridin-3-yl)methyl)-1H-pyrazol-4-yl)methyl)amino)-4,7,8-trimethyl-7,8-dihydropteridin-6(5H)-one] | – | – |
| < 300 | 600 to 2000 | CCN1c2nc(NCc3cnn(Cc4ccc(C(F)(F)F)nc4)c3)nc(C)c2NC(=O)[C@@H]1C [Compound 395, (7S)-8-Ethyl-4,7-dimethyl-2-(((1-((6-(trifluoromethyl)pyridin-3-yl)methyl)-1H-pyrazol-4-yl)methyl)amino)-7,8-dihydropteridin-6(5H)-one] | – | – |
| < 300 | < 600 | Cc1nc(NCc2cnn(Cc3cc(C(F)(F)F)nn3C)c2)nc2c1NC(=O)[C@H](C1CC1)N2C [Compound 396, (7S)-7-Cyclopropyl-4,8-dimethyl-2-(((1-((1-methyl-3-(trifluoromethyl)-1H-pyrazol-5-yl)methyl)-1H-pyrazol-4-yl)methyl)amino)-7,8-dihydropteridin-6(5H)-one] | – | – |
| – | < 600 | Cc1nc(NCc2cnn(Cc3cc(C(F)(F)F)nn3C)c2)nc2c1NC(=O)[C@H](C(C)C)N2C [Compound 397, (7S)-7-Isopropyl-4,8-dimethyl-2-(((1-((1-methyl-3-(trifluoromethyl)-1H-pyrazol-5-yl)methyl)-1H-pyrazol-4-yl)methyl)amino)-7,8-dihydropteridin-6(5H)-one] | – | IC50 ([1]; Homo sapiens, COLO 205, 5 h, Colo 205 cells with stably transfected TCF/LEF luciferase reporter, read-out: TCF reporter Colo205): < 300 nM |
| – | – | (7S)-4,7,8-trimethyl-2-((trans-3-(3,4-difluorophenoxy)cyclobutyl)amino)-7,8-dihydropteridin-6(5H)-one [Compound 251] | – | IC50 ([1]; Colo 205 TCF/LEF luciferase reporter, read-out: TCF reporter Colo205 IC50): 300 to 1000 nM; IC50 (HepG2 parental; read-out: HepG2 viability): ≥ 10000 nM |
